Reference: patent US4211764A, “Gastric secretion stimulation with 2-amino-5-(2-aminoethyl)-1,3,4-thiadiozole” (priority 1978, dated 1980)
Where a name gives a salt, the structure may show the parent alone. Read-outs that look alike come from different tables or passages of the source.

Key:
[1] = system: gastric secretion; conditions: cited from earlier work; for secretory effect per os: introduced per os, clinical conditions, inactivated by the liver and enzymes
[2] = system: gastric secretion; assay type: in vivo, human; conditions: hypodermic or intramuscular
From the text: (§1) Special attention was paid to side effects and the reproductibility of the secretory response after repeated administrations of the drug.
The clinical investigation also helped to determine effective doses of the proposed preparation for submaximum and maximum tests and different forms of administration.

[3] = Physical properties of the dichlorohydrate; assay type: physicochemical
From the text: The dichlorohydrate of this compound is white-yellowish crystalline powder. […] Solution of this compound in 0.01 M of hydrochloric acid at a concentration of 10^-4 M has a characteristic absorption spectrum in the UV range with a maximum of 245±±1 nanometers.

[4] = system: cardiovascular system (hypotension); conditions: relative to histamine; cited from earlier work
[5] = molecular target: T1, H1 -receptors (Cavia porcellus, UniProt P31389); assay: Contraction of isolated ileum; conditions: guinea pig ileum; read-out: pD2 value in relation to H1 -receptors (converted)
T1 construct: from tissue; host or cells: isolated guinea pig ileum
T1 sequence (P31389 whole entry): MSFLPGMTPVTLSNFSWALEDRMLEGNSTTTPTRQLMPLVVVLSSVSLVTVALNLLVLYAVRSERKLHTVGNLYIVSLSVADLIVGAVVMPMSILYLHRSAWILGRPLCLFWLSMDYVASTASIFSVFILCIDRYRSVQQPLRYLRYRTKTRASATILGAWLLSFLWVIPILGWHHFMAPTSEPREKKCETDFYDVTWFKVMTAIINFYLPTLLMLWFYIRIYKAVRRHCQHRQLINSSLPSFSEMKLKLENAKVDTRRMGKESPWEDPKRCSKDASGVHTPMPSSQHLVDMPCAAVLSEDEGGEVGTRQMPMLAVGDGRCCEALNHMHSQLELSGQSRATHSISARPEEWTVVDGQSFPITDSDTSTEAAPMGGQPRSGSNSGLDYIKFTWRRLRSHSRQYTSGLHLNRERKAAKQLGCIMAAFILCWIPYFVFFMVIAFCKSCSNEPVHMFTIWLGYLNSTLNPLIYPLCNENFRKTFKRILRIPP

[6] = molecular target: H2 -ceptors (Canis lupus familiaris, UniProt P17124); assay: Gastric secretion in dogs with gastric fistula, intramuscular injection; conditions: animal (dog)
Chain of H2 -ceptors (P17124 whole entry): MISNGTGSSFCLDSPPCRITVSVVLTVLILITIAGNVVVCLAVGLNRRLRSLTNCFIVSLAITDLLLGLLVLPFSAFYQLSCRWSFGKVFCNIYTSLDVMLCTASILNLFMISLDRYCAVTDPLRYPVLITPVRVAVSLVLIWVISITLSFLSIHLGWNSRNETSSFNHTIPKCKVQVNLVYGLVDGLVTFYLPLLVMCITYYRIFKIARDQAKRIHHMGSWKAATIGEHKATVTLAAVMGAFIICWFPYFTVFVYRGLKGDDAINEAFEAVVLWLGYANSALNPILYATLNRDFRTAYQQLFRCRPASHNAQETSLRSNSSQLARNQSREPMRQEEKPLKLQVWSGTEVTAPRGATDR
Method: (§2) Chronic experiments were performed on male dogs weighing 20 to 25 kg and having a gastric fistula; prior to experiments, the animals were starved for 18 hours.
The gastric juice was analyzed for titratable acidity and proteolytic activity. The hydrochloric acid output was calculated in milliequivalents (mEq) and that of pepsin in milligrams.

[7] = system: dog's stomach; assay: Gastric secretion in dogs, administration per os; assay type: in vivo; conditions: thidazine 100 mg per head (parenterally and per os), histamine 10 and 20 mg, histalog 50 and 100 mg
Method: as §2

[8] = molecular target: H2 -receptors (Rattus norvegicus, UniProt P25102); conditions: uterus horn
Chain of H2 -receptors (Rattus norvegicus, UniProt P25102) (P25102 whole entry): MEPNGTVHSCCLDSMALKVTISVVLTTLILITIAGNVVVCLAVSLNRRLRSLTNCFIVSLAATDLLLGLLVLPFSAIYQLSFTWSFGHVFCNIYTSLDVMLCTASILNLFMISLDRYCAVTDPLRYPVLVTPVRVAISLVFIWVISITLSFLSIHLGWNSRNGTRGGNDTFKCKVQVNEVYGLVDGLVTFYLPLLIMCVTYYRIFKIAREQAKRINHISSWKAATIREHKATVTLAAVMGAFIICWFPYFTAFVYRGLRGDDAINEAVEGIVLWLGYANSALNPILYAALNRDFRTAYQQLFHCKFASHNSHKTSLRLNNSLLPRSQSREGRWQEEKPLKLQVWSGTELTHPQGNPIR
Method: Contractions of an isolated horn of uterus of a rat due to the effect of acetylcholine in a concentration of 1.10^-6 M were recorded on a paper tape.

[9] = cited from earlier work
[10] = system: arterial pressure; assay: Arterial pressure in anesthetized cats; conditions: in vivo, iv, 0.1 mg/kg
Method: These experiments were performed on 11 cats weighing 2.5 to 4.0 kg and anesthetized with urethane-chlorazol mixture containing 60 mg/kg of chlorazol and 600 mg/kg of urethane. The arterial pressure was measured in the common carotid artery with the aid of a mercury pressure gauge.

[11] = molecular target: T2, H2 -receptors (Cavia porcellus, UniProt P47747); assay: Heart rate of isolated auricles; conditions: isolated guinea pig auricles; read-out: pD2 value, H2 -receptors (heart rate) (converted)
T2 construct: from tissue; host or cells: isolated guinea pig auricles (atria)
T2 sequence (P47747 whole entry): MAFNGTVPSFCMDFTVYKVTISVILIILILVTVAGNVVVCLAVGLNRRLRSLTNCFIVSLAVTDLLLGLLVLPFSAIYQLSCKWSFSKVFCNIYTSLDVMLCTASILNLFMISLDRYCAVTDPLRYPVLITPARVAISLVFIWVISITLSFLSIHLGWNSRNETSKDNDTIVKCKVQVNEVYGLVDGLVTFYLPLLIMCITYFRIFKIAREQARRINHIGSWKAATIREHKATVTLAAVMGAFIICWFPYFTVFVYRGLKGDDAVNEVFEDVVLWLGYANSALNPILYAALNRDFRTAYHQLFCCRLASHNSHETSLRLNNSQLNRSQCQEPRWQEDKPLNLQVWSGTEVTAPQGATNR
Method: Changes in the heart rate were measured, dose-response curves were plotted, and pD2 values were calculated.

[12] = system: arterial pressure; assay: Arterial pressure in rabbits; conditions: intravenous, thidazine 0.1 mg/kg, equimolar doses of histamine and histalog
Method: In a series of experiments of 18 rabbits weighing 2.5 to 3.5 kg, each having the common carotid artery in a cutaneous flap, the preparations were injected intravenously.

[13] = system: gastric secretion of patients with duodenal ulceration; assay: Clinical comparison in patients with duodenal ulceration; assay type: in vivo, human
From the text: as §1
Histamine and Pentagastrin Upon Main Gastric Secretion
Characteristics of Patients With Duodenal Ulceration

[14] = system: gastric secretion of patients; assay: Clinical comparison of thidazine with simple histamine test; assay type: in vivo, human; conditions: 20 patients; thidazine 1.5 mg/kg parenteral, histamine 0.01 mg/kg; >0.05
From the text: as §1

[15] = system: total acidity; assay: Clinical reproducibility of secretory response (total acidity); assay type: in vivo, human; conditions: 0.01 mg/kg hypodermic
From the text: as §1
Reproducibility of Secretory Response to Introduction
of Thidazine and Histamine with Reference to Total
Acidity Values (each group of patients includes 10 persons)
^(x) Percentage of difference is the relationship of the difference
between the total acidity values registered in the first and second tests
of a patient to the greater of these values.

[16] = system: H2 -receptors; assay: Prevention of thidazine-induced gastric secretion by an H2 -antagonist; assay type: in vivo, dog; conditions: dogs, methiamide 30 mg/kg before thidazine 2 mg/kg intramuscular
[17] = system: gastric secretion of patients of middle age group; assay: Clinical test: effects of maximum doses upon gastric secretion of patients; assay type: in vivo, human; conditions: for Hourly HCl output: 15 observations
From the text: as §1

In the case of Cc1[nH]cnc1CCN [5-methylhistamine], the “secretory effect per os” value [1] is given as “no secretory effect is produced”.

With Cl.Cl.NCCc1c[nH]cn1 [Histamine dichloride, reference compound] the “dose for maximum secretion test” value [2] was 0.025 mg/kg and the “dose for submaximum secretion test” value [2] was 0.008 mg/kg.

In the case of NCCc1nnc(N)s1 [dihydrochloride of 2-amino-5-(2-aminoethyl)-1,3,4-thiadiazole], the “stability of aqueous solution” value [3] is reported as “stable over prolonged periods of time”, the hygroscopicity ([3]; powder) is reported as “poor hygroscopicity” and the “reaction (acidity) of solution” value ([3]; solutions before neutralization to pH 6 to 7) is reported as “strongly acidic reaction”. For the same molecule, the solubility in water ([3]; water) was “readily soluble in water”.

For NCCc1cc[nH]n1 [histalog, 3-(5)-(2-aminoethyl)pyrazole, reference compound], the “hypotensive effect, times as low as that of histamine” value [4] is listed as 700 times, the “secretory response of the stomach” value ([1]; humans, parenteral, 1 to 5 mg/kg) is listed as “maximum secretory response of the stomach” and the “secretory effect per os” value [1] is listed as “no secretory effect is produced”. The “capability of stimulating gastric secretion, times less effective than histamine” value ([1]; relative to histamine) was 70 times, the EC50 [5] was 58.9 µM and the “production of maximum level of hydrochloric acid secretion in the stomach” value [6] was “can produce a maximum level of hydrochloric acid secretion”. For the same molecule, the “gastric secretion after administration per os” value [7] was “no gastric secretion”, the Emax [8] was 16% and the “dose for maximum secretion test” value [2] was 1.7 mg/kg. For the same molecule, the “dose for submaximum secretion test” value [2] was 0.9 mg/kg, the side effects ([9]; in vivo) was “side effects are observed far less frequently than in the case of histamine” and the “reduction of arterial pressure” value [10] was 30 mm of mercury. For the same molecule, the EC50 [11] was 15.8 µM.

For NCCc1c[nH]cn1 [histamine, reference compound], the “reduction of arterial pressure” value [12] was 40 mm of mercury, the “Chymosin Output” value ([13]; 1st hour (basal secretion)) was 16.0 ± 0.008 units per hour and the “Pepsin Output” value ([13]; 1st hour (basal secretion)) was 3.7 ± 1.2 units per hour. The “Secretion, milliequivalents per hour” value ([13]; 1st hour (basal secretion)) was 7.0 ± 1.2 Milliequivalents per hour, the “Chymosin Output” value ([13]; 2nd hour) was 16.4 ± 0.04 units per hour and the “Pepsin Output” value ([13]; 2nd hour) was 4.8 ± 3.0 units per hour. The “Secretion, milliequivalents per hour” value ([13]; 2nd hour) was 19.4 ± 1.6 Milliequivalents per hour, the “secretory effect per os” value [1] was “no secretory effect is produced” and the “Free Acidity” value [14] was 81.7+21 units. The “HCl Output” value [14] was 12+0.4 milliequivalents per hour, the “Peak HCl Output” value [14] was 8.8+0.2 milliequivalents and the “Total Acidity” value [14] was 92.0+23 units. The “production of maximum level of hydrochloric acid secretion in the stomach” value [6] was “can produce a maximum level of hydrochloric acid secretion”, the “gastric secretion after administration per os” value [7] was “no gastric secretion” and the Emax [8] was 100%. The side effects ([9]; patients) was “reddening of the skin, nausea, vomiting, headache, dizziness, bronchospasm, edema of the rima vocalis, hypotension, and shocks”, the “reduction of arterial pressure” value [10] was 100 mm of mercury and the “% of difference (fluctuations) of total acidity, first and second tests” value [15] was 0-53%. For the same molecule, the “Average difference of total acidity” value [15] was 33%.

With CNC(=S)NCCSCc1nc[nH]c1C [methiamide] the “prevention of thidazine secretory effect” value [16] was “completely prevented”.

In the case of CSCC[C@H](NC(=O)[C@H](Cc1c[nH]c2ccccc12)NC(=O)CCNC(=O)OC(C)(C)C)C(=O)N[C@@H](CC(=O)O)C(=O)N[C@@H](Cc1ccccc1)C(N)=O [pentagastrin, reference compound], the “HCl Concentration” value ([17]; 1st hour (basal secretion)) is reported as 35.3 milliequivalents per liter, the “HCl Concentration” value ([17]; 2nd hour (response to drug)) is reported as 94.0 milliequivalents per liter and the “Gastric Juice, Δ%” value ([17]; 2nd versus 1st hour) is reported as “+63.7%”. The “Hourly HCl output, Δ%” value ([17]; 2nd versus 1st hour) was “+345.9%”, the “Hourly HCl output” value ([17]; 1st hour (basal secretion)) was 3.7 milliequivalents per hour and the “Hourly HCl output” value ([17]; 2nd hour (response to drug)) was 16.5 milliequivalents per hour. For the same molecule, the “Gastric Juice” value ([17]; pentagastrin 6 mg/kg, 1st hour (basal secretion)) was 106.3 ml per hour, the “Gastric Juice” value ([17]; pentagastrin 6 mg/kg, 2nd hour (response to drug)) was 174.0 ml per hour and the “HCl Concentration, Δ%” value ([17]; pentagastrin 6 mg/kg, 2nd versus 1st hour) was “+166.3%”. The “Chymosin Output” value ([13]; 1st hour (basal secretion)) was 157.3 ± 5.9 units per hour, the “Pepsin Output” value ([13]; 1st hour (basal secretion)) was 3.3 ± 0.8 units per hour and the “Secretion, milliequivalents per hour” value ([13]; 1st hour (basal secretion)) was 7.4 ± 0.8 Milliequivalents per hour. For the same molecule, the “Pepsin Output” value ([13]; 2nd hour) was 19.3 ± 3.8 units per hour, the “Secretion, milliequivalents per hour” value ([13]; 2nd hour) was 24.8 ± 1.5 Milliequivalents per hour and the “secretory effect per os” value [1] was “no secretory effect is produced”. The “duration of effect of a single dose” value ([1]; single dose) was “does not last long”, the level of secretion ([1]; sufficient dose) was “can produce a maximum level of secretion” and the side effects ([9]; patients) was “can produce allergic and anaphylactic reactions as a result of repeated administrations”.
